Type in all cases: ADME, organism-based
The nature of data set [1]: Oral bioavailability in Wistar rat at 10 mg/kg, po. The following applies: in vivo.
Data set [2] can be described thus: AUC in Wistar rat at 10 mg/kg, po. Set-up: dose 10 mg/kg, route oral. The following applies: plasma.
The nature of data set [3]: Cmax in Wistar rat at 10 mg/kg, po. Set-up: dose 10 mg/kg, route oral. The following applies: in vivo.
A short description of data set [4]: Half life in Wistar rat at 10 mg/kg, po. Also noted: dose 10 mg/kg, route oral. The following applies: in vivo.
The nature of data set [5]: Half life in Wistar rat at 3 mg/kg, iv. Also noted: dose 3 mg/kg, route intravenous. The following applies: in vivo.
Data set [6] can be described thus: Clearance in Wistar rat at 3 mg/kg, iv. Set-up: dose 3 mg/kg, route intravenous. The following applies: in vivo.
Data set [7] is described as follows: Volume of distribution in Wistar rat at 3 mg/kg, iv. The following applies: in vivo, read-out: Vdss. Set-up: dose 3 mg/kg, route intravenous.

The structures appear in SMILES notation.

A word on the bioavailability: it is the share of a dose that reaches the circulation, judged against a reference dose that is usually intravenous. A low value points to poor availability. Broadly, the AUC is the area under the concentration-time curve, a measure of exposure. A higher AUC goes with more exposure. As usually defined, the Cmax is the peak of the concentration-time curve. One may read the half-life as the time in which the quantity being followed falls by half. The term clearance denotes the volume of plasma or blood freed of the substance per unit of time. In data set [1], `C[C@@H](CN1c2ccc(F)cc2CC1(C)C)NC(=O)O[C@@H](CC1CCCCC1)C(=O)N1CCOCC1` yielded a bioavailability of 23%. In data set [2], the AUC was 733 ng·h/mL. The peak concentration (Cmax) in data set [3] came to 513 nM. The results for the half-life in data set [4] and in data set [5] were 1.03 h and 1.37 h, respectively. The compound also yielded a clearance in data set [6] of 52 mL/min/kg. Further, in data set [7], the Vd came to 3.1 L/kg.
Turning to `C[C@@H](CN1CC(C)(C)c2cc(F)ccc21)NC(=O)[C@H](CC1CCCCC1)NC(=O)N1CCOCC1`, in data set [1], the bioavailability turned out to be 4%. In data set [2], this compound gave an AUC of 133 ng·h/mL. The peak level in data set [3] (Cmax) was 118 nM. Besides, the figures for the half-life in data set [4] and in data set [5] were 0.85 h and 0.717 h, respectively. This compound also had a clearance in data set [6] of 52 mL/min/kg. Besides, in data set [7], the Vd is 1.76 L/kg.
The compound `C[C@@H](CN1CC(C)(C)c2cc(F)ccc21)NC(=O)O[C@@H](CC1CCCCC1)C(=O)N1CCOCC1` returned a bioavailability in data set [1] of 42%. This compound also showed an AUC in data set [2] of 1350 ng·h/mL. This compound came in with a maximum concentration (Cmax) in data set [3] of 774 nM. The half-life in data set [4] amounted to 1.15 h; in data set [5], 1.67 h. Further, the clearance in data set [6] was 52 mL/min/kg. In data set [7], the Vd stood at 4.1 L/kg.

These data come from ChEMBL document CHEMBL1146890, “Arylaminoethyl carbamates as a novel series of potent and selective cathepsin S inhibitors” (Bioorg Med Chem Lett, 2006).
